From patent US8003659B2, “Macrocyclic serine protease inhibitors” (Indenix Pharmaceuticals, Inc., priority 2008, dated 2011)

Legend:
[1] = Cytotoxicity evaluation (Cell Titer 96 AQueous One Solution Cell Proliferation Assay); assay type: cell-based; conditions: human; GS4.1 cells, cellular viability
Experimental: For cytotoxicity evaluation, GS4.1 cells were treated with compounds as described above and cellular viability was monitored using the Cell Titer 96 AQueous One Solution Cell Proliferation Assay (Promega). CC50 values were determined from the % cytotoxicity versus concentration data with Tecan Magellan software as described above.

[2] = system: Huh-7 cells containing HCV Con1 subgenomic replicon (GS4.1 cells); experiment: HCV Replicon Assay (NS4A ELISA); assay type: cell-based; conditions: Hepatitis C virus, Huh-7, 72 hr, NS4A protein by ELISA
Experimental: General procedure: Huh-7 cells containing HCV Con1 subgenomic replicon (GS4.1 cells) were grown in Dulbecco's Modified Eagle Medium (DMEM) supplemented with 10% fetal bovine serum (FBS), 2 mM L-glutamine, 110 mg/L sodium pyruvate, 1× non-essential amino acids, 100 U/mL penicillin-streptomycin, and 0.5 mg/mL G418 (Invitrogen). For dose-response testing, the cells were seeded in 96-well plates at 7.5×10^3 cells/well in a volume of 50 μL, and incubated at 37° C./5% CO2. Three hours after plating, 50 μL of ten 2-fold serial dilutions of compounds (highest concentration, 75 μM) were added, and cell cultures were incubated at 37° C./5% CO2 in the presence of 0.5% DMSO. Alternatively, compounds were tested at a single concentration of 15 μM. In all cases, Huh-7 cells lacking the HCV replicon served as negative control. The cells were incubated in the presence of compounds for 72 hr after which they were monitored for expression of the NS4A protein by enzyme-linked immunosorbent assay (ELISA). For this, the plates were then fixed for 1 min with acetone/methanol (1:1, v/v), washed twice with phosphate-buffered saline (PBS), 0.1% Tween 20, blocked for 1 hr at room temperature with TNE buffer containing 10% FBS and then incubated for 2 hr at 37° C. with the anti-NS4A mouse monoclonal antibody A-236 (ViroGen) diluted in the same buffer. After washing three times with PBS, 0.1% Tween 20, the cells were incubated 1 hr at 37° C. with anti-mouse immunoglobulin G-peroxidase conjugate in TNE, 10% FBS. After washing as described above, the reaction was developed with O-phenylenediamine (Zymed). The reaction was stopped after 30 min with 2 NH2SO4, and absorbance was read at 492 nm using Sunrise Tecan spectrophotometer. EC50 values were determined from the % inhibition versus concentration data using a sigmoidal non-linear regression analysis based on four parameters with Tecan Magellan software. When screening at a single concentration, the results were expressed as % inhibition at 15 μM.

HCV NS3-NS4A protease = molecular target: T1, HCV NS3-NS4A protease (Hepatitis C virus genotype 1b, UniProt P26663); experiment: HCV Protease Assay (SensoLyte 620 HCV Protease Assay kit); assay type: biochemical; conditions: 1.2 nM HCV NS3-NS4A protease, 60 min at room temperature, 5% DMSO
T1 construct: made in house
Experimental: General procedure: Measurement of the inhibitory effect of compounds on HCV protease activity was performed with the SensoLyte™ 620 HCV Protease Assay kit from AnaSpec, Inc. (San Jose, Calif.) under conditions described by the supplier using 1.2 nM HCV NS3-NS4A protease, which was obtained according to Taremi et al. (Protein Science, 1998, 7, 2143-2149). The compounds were tested at a variety of concentrations in assay buffer containing a final DMSO concentration of 5%. Reactions were allowed to proceed for 60 min at room temperature and fluorescence measurements were recorded with a Tecan Infinity Spectrofluorimeter. The IC50 values were determined from the percent inhibition versus concentration data using a sigmoidal non-linear regression analysis based on four parameters with Tecan Magellan software.

T1 sequence (P26663 1027-1208): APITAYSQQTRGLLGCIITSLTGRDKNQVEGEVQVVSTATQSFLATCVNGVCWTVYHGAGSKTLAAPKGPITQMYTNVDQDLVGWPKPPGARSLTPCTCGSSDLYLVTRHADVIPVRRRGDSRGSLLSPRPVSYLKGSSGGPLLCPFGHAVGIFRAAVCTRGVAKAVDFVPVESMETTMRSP

Row | SMILES | CC50 [1] | EC50 [2] | IC50 (HCV NS3-NS4A protease)
1 | COc1cc(OC)c2c(O[C@H]3C[C@H]4C(=O)N(C)CCCC/C=C\[C@@H]5C[C@@]5(C(=O)NS(=O)(=O)C5(C)CC5)NC(=O)N4C3)cc(-c3nc(C(C)C)cs3)nc2c1 [Compound 56e, (Z)-(4R,6S,15S,17S)-[17-[5,7-dimethoxy-2-(4-isopropylthiazol-2-yl)quinolin-4-yloxy]-13-N-methyl-2,14-dioxo-1,3,13-triazatricyclo[13.3.0.0]octadec-7-en-4-yl]carbonyl(1-methyl-cyclopropyl)sulfonamide] | > 75000 nM | 1000 to 10000 nM | < 1000 nM
2 | COc1ccc2c(O[C@H]3C[C@H]4C(=O)N(C)CCCC/C=C\[C@@H]5C[C@@]5(C(=O)NS(=O)(=O)C5(C)CC5)NC(=O)N4C3)cc(-n3ccc(C(F)(F)F)n3)nc2c1Cl [Compound 91a, (Z)-(4R,6S,15S,17S)-[17-[8-chloro-7-methoxy-2-(3-trifluoromethyl-1H-pyrazol-1-yl)quinolin-4-yloxy]-13-N-methyl-2,14-dioxo-1,3,13-triazatricyclo[13.3.0.0]octadec-7-ene-4-yl]carbonyl(1-methylcyclopropyl)sulfonamide] | > 75000 nM | < 1000 nM | < 1000 nM
3 | COc1ccc2c(O[C@H]3C[C@H]4C(=O)N(C)CCCC/C=C\[C@@H]5C[C@@]5(C(=O)NS(=O)(=O)C5(C)CC5)NC(=O)N4C3)cc(-c3nc(C(C)C)cs3)nc2c1F [Compound 56c, (Z)-(4R,6S,15S,17S)-[17-[8-fluoro-7-methoxy-2-(4-isopropylthiazol-2-yl)quinolin-4-yloxy]-13-N-methyl-2,14-dioxo-1,3,13-triazatricyclo[13.3.0.0]octadec-7-en-4-yl]carbonyl(1-methyl-cyclopropyl)sulfonamide] | > 75000 nM | < 1000 nM | < 1000 nM
4 | C#CC1(S(=O)(=O)NC(=O)[C@@]23C[C@H]2/C=C\CCCCN(C)C(=O)[C@@H]2C[C@H](Oc4cc(-c5nc(C(C)C)cs5)nc5c(C)c(OC)ccc45)CN2C(=O)N3)CC1 [Compound 83b, (Z)-(4R,6S,15S,17S)-[17-[7-methoxy-8-methyl-2-(4-isopropylthiazol-2-yl)quinolin-4-yloxy]-13-N-methyl-2,14-dioxo-1,3,13-triazatricyclo[13.3.0.0]octadec-7-en-4-yl]carbonyl(1-ethynylcyclopropyl)sulfonamide] | > 75000 nM | < 1000 nM | < 1000 nM
5 | COc1ccc2c(O[C@H]3C[C@H]4C(=O)N(C)CCCC/C=C\[C@@H]5C[C@@]5(C(=O)NS(=O)(=O)C5(C)CC5)NC(=O)N4C3)cc(-n3ccc(C(C)C)n3)nc2c1C [Compound 91b, (Z)-(4R,6S,15S,17S)-[17-[8-methyl-7-methoxy-2-(3-isopropyl-1H-pyrazol-1-yl)quinolin-4-yloxy]-13-N-methyl-2,14-dioxo-1,3,13-triazatricyclo[13.3.0.0]octadec-7-ene-4-yl]carbonyl(1-methylcyclopropyl)sulfonamide] | 10000 to 75000 nM | < 1000 nM | < 1000 nM
6 | COc1ccc2c(O[C@H]3C[C@H]4C(=O)N(C)CCCC/C=C\[C@@H]5C[C@@]5(C(=O)NS(=O)(=O)C5(C)CC5)NC(=O)N4C3)cc(-c3nc(C(C)C)cs3)nc2c1 [Compound 56a, (Z)-(4R,6S,15S,17S)-[17-[7-methoxy-2-(4-isopropylthiazol-2-yl)quinolin-4-yloxy]-13-N-methyl-2,14-dioxo-1,3,13-triazatricyclo-[13.3.0.0]octadec-7-en-4-yl]carbonyl(1-methyl-cyclopropyl)sulfonamide] | > 75000 nM | < 1000 nM | < 1000 nM
7 | COc1ccc2c(O[C@H]3C[C@H]4C(=O)N(C)CCCC/C=C\[C@@H]5C[C@@]5(C(=O)NS(=O)(=O)C5(C)CC5)NC(=O)N4C3)cc(-c3csc(C(F)(F)F)n3)nc2c1Cl [Compound O2, (Z)-(4R,6S,15S,17S)-[17-[8-chloro-7-methoxy-2-(2-trifluoromethylthiazol-4-yl)quinolin-4-yloxy]-13-N-methyl-2,14-dioxo-1,3,13-triazatricyclo-[13.3.0.0]octadec-7-en-4-yl]carbonyl-(1-methylcyclopropyl)sulfonamide] | 10000 to 75000 nM | < 1000 nM | < 1000 nM
8 | COc1ccc2c(O[C@H]3C[C@H]4C(=O)N(C)CCCC/C=C\[C@@H]5C[C@@]5(C(=O)NS(=O)(=O)C5CC5)NC(=O)N4C3)cc(-c3nc(C(F)(F)F)cs3)nc2c1Cl [Compound 69d, (Z)-(4R,6S,15S,17S)-[17-[8-chloro-7-methoxy-2-(4-trifluoromethythiazol-2-yl)quinolin-4-yloxy]-13-N-methyl-2,14-dioxo-1,3,13-triazatricyclo[13.3.0.0]octadec-7-en-4-yl]carbonyl(cyclopropyl)sulfonamide] | 10000 to 75000 nM | < 1000 nM | < 1000 nM
9 | COc1ccc2c(O[C@H]3C[C@H]4C(=O)N(C)CCCC/C=C\[C@@H]5C[C@@]5(C(=O)NS(=O)(=O)C5(C)CC5)NC(=O)N4C3)cc(-n3ccc(C(C)C)n3)nc2c1Cl [Compound 91d, (Z)-(4R,6S,15S,17S)-[17-[8-chloro-7-methoxy-2-(3-isopropyl-1H-pyrazol-1-yl)quinolin-4-yloxy]-13-N-methyl-2,14-dioxo-1,3,13-triazatricyclo[13.3.0.0]octadec-7-ene-4-yl]carbonyl(1-methylcyclopropyl)sulfonamide] | > 75000 nM | < 1000 nM | < 1000 nM
10 | COc1ccc2c(O[C@H]3C[C@H]4C(=O)N(C)CCCC/C=C\[C@@H]5C[C@@]5(C(=O)NS(=O)(=O)C5CC5)NC(=O)N4C3)cc(-c3nc(C4CCC4)cs3)nc2c1Cl [AC2, (Z)-(4R,6S,15S,17S)-[17-[8-chloro-7-methoxy-2-(4-cyclobutylthiazol-2-yl)quinolin-4-yloxy]-13-N-methyl-2,14-dioxo-1,3,13-triazatricyclo-[13.3.0.0]octadec-7-en-4-yl]carbonyl-(cyclopropyl)sulfonamide] | 10000 to 75000 nM | < 1000 nM | < 1000 nM
11 | C#Cc1csc(-c2cc(O[C@H]3C[C@H]4C(=O)N(C)CCCC/C=C\[C@@H]5C[C@@]5(C(=O)NS(=O)(=O)C5(C)CC5)NC(=O)N4C3)c3ccc(OC)c(Cl)c3n2)n1 [Compound G2, (Z)-(4R,6S,15S,17S)-[17-[8-chloro-7-methoxy-2-(4-ethynylthiazol-2-yl)quinolin-4-yloxy]-13-N-methyl-2,14-dioxo-1,3,13-triazatricyclo-[13.3.0.0]octadec-7-en-4-yl]carbonyl(1-methyl-cyclopropyl)sulfonamide] | 10000 to 75000 nM | < 1000 nM | < 1000 nM
12 | C#Cc1csc(-c2cc(O[C@H]3C[C@H]4C(=O)N(C)CCCC/C=C\[C@@H]5C[C@@]5(C(=O)NS(=O)(=O)C5CC5)NC(=O)N4C3)c3ccc(OC)c(Cl)c3n2)n1 [Compound G1, (Z)-(4R,6S,15S,17S)-[17-[8-chloro-7-methoxy-2-(4-ethynylthiazol-2-yl)quinolin-4-yloxy]-13-N-methyl-2,14-dioxo-1,3,13-triazatricyclo-[13.3.0.0]octadec-7-en-4-yl]carbonyl(cyclopropyl)sulfonamide] | 10000 to 75000 nM | < 1000 nM | < 1000 nM
